The results in this text go back to ChEMBL document CHEMBL1201862, “PubChem BioAssay data set” (2004).

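Briefly, cells in 96-well plates were exposed to five compound concentrations for 48 h, and endpoints were estimated by linear interpolation. Abbreviation: GI50, concentration required for 50% inhibition of growth.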 The source made the active and inactive calls. Cut-off read from the data, not from the text of the source: active = GI50 up to about 1.1 µM and inactive = higher. Some results are limits rather than exact numbers.

Assay in all cases: DTP human tumour cell line panel, 48 h
Assay [1] has as its system HL-60.
Assay [2] has as its system SNB-19.
The test system of assay [3] is SK-MEL-28.
For assay [4], the system named is NCI-H23.
Assay [5] concerns CAKI-1.
Assay [6] concerns NCI-H522.
Assay [7] relates to BT-549.
Assay [8] has as its system NCI-H226.
In assay [9] the test system is MDA-MB-231.
For assay [10], the system named is K562.
The test system of assay [11] is HCT-15.
In assay [12] the test system is LOX IMVI.
Assay [13] has as its system SR.
For assay [14], the system named is SK-OV-3.
The test system of assay [15] is HOP-62.
Assay [16] deals with OVCAR-3.
Assay [17] has as its system NCI-H460.
Assay [18] concerns TK-10.
Assay [19] deals with UACC-257.
Assay [20] relates to HCC 2998.

Usually GI50 stands for the concentration at which growth is held to half of that of the control. For the compound `CC1(C)SC2C(NC(=O)Cc3ccccc3)C(=O)N2C1C(=O)O` (stereo not given), the GI50 in assay [1], in assay [2], in [3], in assay [4], in [5] and in assay [6] was > 100 µM (inactive) throughout. For the same compound, the GI50 in assay [7] is > 100 µM (inactive); in [8], 34 µM (inactive); in assay [9], > 100 µM (inactive); in [10], > 100 µM (inactive); in [11], above 100 µM; in assay [12], > 100 µM (inactive). For the same compound, the GI50 in assay [13], in [14], in assay [15], in [16], in assay [17] and in assay [18] was > 100 µM (inactive) in each case. Moreover, in assay [19], the GI50 was > 100 µM (inactive).

With `CCC12CC(c3ccccc3)C(C(=O)N1)C(=O)N2` (stereo not given), the GI50 in [1], in assay [2], in assay [3], in assay [4], in assay [5] and in [6] was > 100 µM (inactive) each time. The GI50 in assay [7] was > 100 µM (inactive); in assay [8], > 100 µM (inactive); in assay [9] it was > 100 µM (inactive); in assay [10] it was > 100 µM (inactive); in assay [11], above 100 µM; in assay [13], > 100 µM (inactive). For the same compound, the GI50 in assay [14], in assay [15], in assay [16], in assay [17] and in [19] was > 100 µM (inactive) in each case.

`[N-]=[N+]=Nc1ccc2c(c1)Sc1ccccc1N2CCCCN1CCN(Cc2ccc(C(=O)c3ccc(CSCC(N)C(=O)O)cc3)cc2)CC1` (stereo not given): the GI50 in [1] was 6.55 µM (inactive); in [3] it was 2.01 µM (inactive); in [4], 31.3 µM (inactive); in [5], 20.7 µM (inactive); in assay [6], 12.5 µM (inactive); in assay [7] it was 18 µM (inactive). In addition, the GI50 in assay [8] was 13.2 µM (inactive); in [9] it was 13.6 µM (inactive); in [10] it was 12.5 µM (inactive); in [11], 14.2 µM; in assay [12], 10.6 µM (inactive); in assay [14], > 100 µM (inactive). Moreover, the GI50 in assay [15] is 23.9 µM (inactive); in assay [16] it was 26.9 µM (inactive); in [17] it was 34.8 µM (inactive); in assay [18], 56.2 µM (inactive); in [19] it was 22.8 µM (inactive); in assay [20], 24.9 µM (inactive).

For the compound `Cc1ccccc1/N=C/N(C)C`, the GI50 in [1] is 14.1 µM (inactive); in assay [2], 56.8 µM (inactive); in assay [3], 75.3 µM (inactive); in assay [4], 19.2 µM (inactive); in assay [5] it was > 100 µM (inactive); in assay [6] it was 21.2 µM (inactive). The GI50 in assay [7] is 85.7 µM (inactive); in assay [8] it was 48.4 µM (inactive); in assay [9], 39 µM (inactive); in [10] it was 14.1 µM (inactive); in [11], above 100 µM; in [12], 23.8 µM (inactive). Further, the GI50 is 11.4 µM (inactive) in assay [13]; > 100 µM (inactive) in assay [14]; 58.6 µM (inactive) in assay [15]; 17.7 µM (inactive) in assay [16]; 54.6 µM (inactive) in assay [18]; 22 µM (inactive) in [19].

Turning to `O=C1NI(C#Cc2ccccc2)c2ccccc21`, the GI50 in assay [1], in assay [2], in assay [3], in [4], in [5] and in [7] was > 100 µM (inactive) throughout. Besides, the GI50 was > 100 µM (inactive) in [8]; > 100 µM (inactive) in assay [9]; > 100 µM (inactive) in [10]; above 100 µM in [11]; > 100 µM (inactive) in assay [12]; > 100 µM (inactive) in [13]. Besides, the GI50 in assay [14] is 1.32 µM (inactive); in assay [15], > 100 µM (inactive); in [16], > 100 µM (inactive); in assay [17], > 100 µM (inactive); in assay [18] it was > 100 µM (inactive); in assay [19], > 100 µM (inactive).

Consider `COc1ccc2c(c1)/C(=C\c1c(Cl)nc3n1CCS3)C(=O)N2`, for which the GI50 is 3.58 µM (inactive) in assay [1]; 14.6 µM (inactive) in assay [2]; 18.7 µM (inactive) in assay [3]; 11.2 µM (inactive) in assay [4]; 7.48 µM (inactive) in [5]; 3.73 µM (inactive) in [6]. The GI50 is 6.76 µM (inactive) in [7]; 5.14 µM (inactive) in assay [9]; 3.02 µM (inactive) in assay [10]; 3.84 µM in assay [11]; 9.71 µM (inactive) in [12]; 13.1 µM (inactive) in assay [14]. Further, the GI50 was 6.35 µM (inactive) in assay [15]; 2.77 µM (inactive) in assay [16]; 3.71 µM (inactive) in assay [17]; 5 µM (inactive) in assay [18]; 5.48 µM (inactive) in [19]; 2.74 µM (inactive) in [20].

`C[C@]12CC[C@H]3[C@@H](CCC4=C/C(=N/OCCN5CCCCC5)CC[C@@]43C)[C@@H]1CC[C@@H]2O`: the GI50 was 2.99 µM (inactive) in assay [1]; 5.68 µM (inactive) in assay [2]; 13.6 µM (inactive) in [3]; 13.7 µM (inactive) in [4]; 28.8 µM (inactive) in assay [5]; 12.2 µM (inactive) in assay [6]. Besides, the GI50 was 15.4 µM (inactive) in assay [7]; 4.29 µM (inactive) in assay [8]; 22.2 µM (inactive) in [9]; 2.75 µM (inactive) in assay [10]; 8.04 µM in [11]; 11 µM (inactive) in [12]. Further, the GI50 in assay [14] is 15.2 µM (inactive); in assay [15] it was 14.1 µM (inactive); in [16], 16.3 µM (inactive); in assay [18], 14.3 µM (inactive); in [19] it was 17.2 µM (inactive); in assay [20], 14.4 µM (inactive).

As to `COC(=O)C1OC(SCCN)C(O)C(O)C1O` (stereo not given), the GI50 in [1], in [2], in assay [3], in [4], in assay [5] and in [6] was > 100 µM (inactive) in each case. The GI50 in [7] was > 100 µM (inactive); in [8], > 100 µM (inactive); in assay [9], > 100 µM (inactive); in assay [10] it was > 100 µM (inactive); in assay [11], above 100 µM; in assay [12] it was > 100 µM (inactive). Also, the GI50 in assay [13], in assay [14], in assay [15], in assay [16], in [17] and in [18] was > 100 µM (inactive) in each case. In addition, the GI50 in assay [19] was > 100 µM (inactive).

Take `COc1cc2cnc(-c3ccccc3)cc2cc1OC`: the GI50 in [1] was 20.3 µM (inactive); in [2] it was 24.9 µM (inactive); in assay [3], 33.5 µM (inactive); in assay [4] it was 20.9 µM (inactive); in assay [5], 20.7 µM (inactive); in assay [6] it was 20 µM (inactive). Moreover, the GI50 was 23.2 µM (inactive) in [7]; 17.7 µM (inactive) in assay [8]; 19.1 µM (inactive) in assay [9]; 30.1 µM (inactive) in assay [10]; 19 µM in assay [11]; 16.8 µM (inactive) in [13]. Moreover, the GI50 is 39.7 µM (inactive) in assay [14]; 56.1 µM (inactive) in assay [15]; 24.3 µM (inactive) in assay [16]; 32.2 µM (inactive) in assay [17]; 25.7 µM (inactive) in assay [18]; 22.8 µM (inactive) in assay [19].

Take `CC1OC(O[C@H]2C3C=CO[C@@H](OC4OC(CO)C(O)C(O)C4O)C3[C@@]3(COC(=O)/C=C/c4ccc(O)cc4)O[C@@H]23)C(O)C(O)C1O` (stereo not given in full): the GI50 in [1], in assay [2], in assay [3], in [4], in [5] and in assay [6] was > 100 µM (inactive) in each case. The GI50 in [7] was > 100 µM (inactive); in assay [8], > 100 µM (inactive); in [9] it was > 100 µM (inactive); in [10] it was > 100 µM (inactive); in assay [11] it was above 100 µM; in assay [12], > 100 µM (inactive). In addition, the GI50 in assay [14], in assay [15], in assay [16], in assay [17], in [18] and in [19] was > 100 µM (inactive) each time. For the same compound, the GI50 in assay [20] was > 100 µM (inactive).

Turning to `CC(=O)/C(=C/c1ccccc1F)C(=O)c1ccccc1`, the GI50 in [1] was 21.4 µM (inactive); in [2], 60.7 µM (inactive); in [3], 53.2 µM (inactive); in [4], 32 µM (inactive); in assay [5], > 100 µM (inactive); in assay [6], 26.5 µM (inactive). For the same compound, the GI50 in assay [7] is 48.2 µM (inactive); in [8] it was 76.4 µM (inactive); in [9], 26.1 µM (inactive); in [11], 27.7 µM; in assay [12], 17.8 µM (inactive); in [14], 34.9 µM (inactive). For the same compound, the GI50 in [15] was 35.2 µM (inactive); in assay [16], 18.6 µM (inactive); in assay [17], 25.1 µM (inactive); in assay [18] it was 24.4 µM (inactive); in [19] it was 25.9 µM (inactive); in assay [20], 16.2 µM (inactive).
